# Data taken from patent US11654159B2, “Therapeutic use of electroacupuncture-induced mesenchymal stem cells” (UNIVERSITY OF FLORIDA RESEARCH FOUNDATION, INC., priority 2016, dated 2023).
# Legend:
# [1] = tested on: MSCs (Lin− CD90+CD44hi cells); assay: Pharmacological disinhibition of the dorsomedial regions of the tuberal hypothalamus: blood cells by flow cytometry; assay type: in vivo, rat; conditions: rats
# Protocol: Adult male Sprague-Dawley rats (300-350 g; Harlan Laboratories, Indianapolis, Ind.), were housed in plastic cages under standard environmental conditions (22° C.; 12/12 light/dark cycle; lights on at 7:00 A.M.) for 7-10 days prior to the surgical manipulations. Food and water were provided ad libitum. All experiments were conducted in accordance with the Guide for the Care and Use of Laboratory Animals, 8th Edition (Institute for Laboratory Animal Research, The National Academies Press, Washington, D.C., 2011) and the guidelines of the IUPUI Institutional Animal Care and Use Committee.
# Once rats were anesthetized with an isoflurane system (MGX Research Machine; Vetamic, Rossville, Ind.), they were placed in a small animal stereotaxic frame (Model 963 Ultra Precise Frame, Kopf, Tujunga, Calif.). […]
# [2] = tested on: rat MSCs (Lin− CD90+CD44hi cells); conditions: rats
# Protocol: (§1) Sprague-Dawley rats were injected with epinephrine (SO, El Monte, Ca) intraperitoneally at 50 μg/kg. Uninjected rats were used as baseline controls. Rats were euthanized at 2, 4, and 6 hours post injection. Blood was collected and processed for flow cytometry as described below. A separate cohort of rats was injected IP with 50 mg/kg dopamine for 4 days consecutively. After last injection, rats were euthanized at 2 and 4 hours post injection. Blood was collected and processed for flow cytometry as described below.
# PBMCs were isolated using lympholyte M (Cedarlene, Ontario, Canada) density gradient separation and centrifuged at room temperature at 740×g for 30 minutes.
# PBMCs were stained with the MPFC protocols in real-time within 24 h after blood collection at the Angio BioCore, IUPUI, for the identification of MSCs as previously described.^50-53 23 PBMCs were incubated with Fc blocking reagent (Miltenyi Biotec or BD biosciences) for 10 minutes on ice and stained as published^50. Cells were incubated with titrated antibodies for 30 minutes at 4° C., washed twice in PBS with 2% FBS, fixed in 1% paraformaldehyde (Tousimis, Rockville, Md.), and run on a BD LSRII flow cytometer (BD) equipped with a 405 nm violet laser, 488 nm blue laser and 633 nm red laser. Data were acquired uncompensated and exported as FCS 3.0 files, and analyzed utilizing FlowJo software, version 9.7.5 or version X (Tree Star, Inc, Ashland, Oreg.). “Fluorescent minus one” (FMO) gating controls were used to ensure proper gating of positive events^50,52,54. In order to resolve the rare and/or dim populations of interest, specific antigen and fluorochrome conjugate coupling was optimized for the six-antibody plus a viability marker staining panel^50-54. BD compBeads (BD Biosciences) were used for color compensations.
# Rat MSC were gated sequentially on FMO gates for LIVE/DEAD^−CD45^−erythroid cells^−CD31^−CD11b^− CD90^+CD44H^+ cells.
# plasma NE = conditions: rats
# Protocol: as §1
# NE levels were measured in EA-treated horses using NE ELISA kit (ALPCO™, Salem, N.H.) according to the manufacturer's instructions. Plasma NE, Epi and DA levels were measured in EA treated rats using the TriCAT ELISA kit (ALPCO™).
# MSCs = assay: Propranolol pretreatment before EA: MSC mobilization; assay type: in vivo, mice
# Description: Blood was collected and processed for flow cytometry as described below.
compound,measurement,setting,value
C[N+]1(C)CCc2cc3c(cc2[C@H]1[C@@H]1OC(=O)c2c1ccc1c2OCO1)OCO3.[I-] [bicuculline methiodide],total number of cells in the blood,"[1]; 30 pmol into tuberal hypothalamus, p=0.412",did not alter
same,percentage of MSCs (Lin− CD90+CD44hi cells),"[1]; highest dose 50 pmol, 4 hours post injection, p=0.027",did increase
NCCc1ccc(O)c(O)c1 [dopamine],time of increase in circulating MSCs,[2]; dopamine IP,2 h
same,NE levels,plasma NE; dopamine 50 mg/kg for 4 consecutive days,pointed increase
same,time of peak in plasma NE concentration post administration,plasma NE; dopamine IP,2 h
CNC[C@H](O)c1ccc(O)c(O)c1 [epinephrine],MSCs in peripheral blood,"[2]; epinephrine 50 μg/kg intraperitoneally, vs uninjected baseline, p=0.0125",significant elevation
same,time of increase of rat MSCs in the circulation,[2]; epinephrine IP,6 h
CC(C)NCC(O)COc1cccc2ccccc12 (stereo not drawn) [propranolol],mobilization of MSCs by EA,"MSCs; mice pretreated for 24 hours prior to EA, p<0.01",prevented
same,MSC mobilization by EA,"MSCs; pretreatment, at 4 hours, compared to untreated animals, p=0.01",inhibited
